Experimental data: the supplement of paper PMC11451515

Tested on: P12-Ichikawa
Assay: cell viability relative to DMSO control; higher = less cytotoxic
Settings: 48 h
Method in brief: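 Viability was expressed as a per-plate percentage of DMSO wells, with cell-free wells as background. Leukemia cells (NOMO1 or SEM at 500 cells/well, P12-Ichikawa at 1000 cells/well) were adapted for at least four passages in each medium and seeded in 1536-well plates (5 μl). Library compounds in DMSO were pin-dosed over an 11-point threefold series from 47 μM to 0.79 nM, and CellTiter-Glo One luminescence was read after 48 h at 37°C.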

[1] = HPLM + 10% dialyzed FBS, 0.000781 µM
[2] = HPLM + 10% dialyzed FBS, 0.00234 µM
[3] = HPLM + 10% dialyzed FBS, 0.00702 µM
[4] = HPLM + 10% dialyzed FBS, 0.0211 µM
[5] = HPLM + 10% dialyzed FBS, 0.0632 µM
[6] = HPLM + 10% dialyzed FBS, 0.19 µM
[7] = HPLM + 10% dialyzed FBS, 0.569 µM
[8] = HPLM + 10% dialyzed FBS, 1.71 µM
[9] = HPLM + 10% dialyzed FBS, 5.12 µM
[10] = HPLM + 10% dialyzed FBS, 15.4 µM
[11] = HPLM + 10% dialyzed FBS, 46.1 µM
[12] = RPMI 5 mM glucose + 10% FBS, 0.000781 µM
[13] = RPMI 5 mM glucose + 10% FBS, 0.00234 µM
[14] = RPMI 5 mM glucose + 10% FBS, 0.00702 µM
[15] = RPMI 5 mM glucose + 10% FBS, 0.0211 µM
[16] = RPMI 5 mM glucose + 10% FBS, 0.0632 µM
[17] = RPMI 5 mM glucose + 10% FBS, 0.19 µM
[18] = RPMI 5 mM glucose + 10% FBS, 0.569 µM
[19] = RPMI 5 mM glucose + 10% FBS, 1.71 µM
[20] = RPMI 5 mM glucose + 10% FBS, 5.12 µM
[21] = RPMI 5 mM glucose + 10% FBS, 15.4 µM
[22] = RPMI 5 mM glucose + 10% FBS, 46.1 µM
[23] = RPMI 5 mM glucose + 10% dialyzed FBS, 0.000781 µM
[24] = RPMI 5 mM glucose + 10% dialyzed FBS, 0.00234 µM
[25] = RPMI 5 mM glucose + 10% dialyzed FBS, 0.00702 µM
[26] = RPMI 5 mM glucose + 10% dialyzed FBS, 0.0211 µM
[27] = RPMI 5 mM glucose + 10% dialyzed FBS, 0.0632 µM
[28] = RPMI 5 mM glucose + 10% dialyzed FBS, 0.19 µM
[29] = RPMI 5 mM glucose + 10% dialyzed FBS, 0.569 µM
[30] = RPMI 5 mM glucose + 10% dialyzed FBS, 1.71 µM
[31] = RPMI 5 mM glucose + 10% dialyzed FBS, 5.12 µM
[32] = RPMI 5 mM glucose + 10% dialyzed FBS, 15.4 µM
[33] = RPMI 5 mM glucose + 10% dialyzed FBS, 46.1 µM

SMILES	cell viability [1] [%]	cell viability [2] [%]	cell viability [3] [%]	cell viability [4] [%]	cell viability [5] [%]	cell viability [6] [%]	cell viability [7] [%]	cell viability [8] [%]	cell viability [9] [%]	cell viability [10] [%]	cell viability [11] [%]	cell viability [12] [%]	cell viability [13] [%]	cell viability [14] [%]	cell viability [15] [%]	cell viability [16] [%]	cell viability [17] [%]	cell viability [18] [%]	cell viability [19] [%]	cell viability [20] [%]	cell viability [21] [%]	cell viability [22] [%]	cell viability [23] [%]	cell viability [24] [%]	cell viability [25] [%]	cell viability [26] [%]	cell viability [27] [%]	cell viability [28] [%]	cell viability [29] [%]	cell viability [30] [%]	cell viability [31] [%]	cell viability [32] [%]	cell viability [33] [%]
O=C(NCCO[N+](=O)[O-])c1cccnc1	112	113	118	122	115	117	115	116	113	121	118	112	126	120	130	121	119	126	126	127	126	118	112	116	109	114	111	123	111	112	112	111	117
C[N+](C)(C)CC(=O)O.[Cl-]	86.5	92	93	92.6	93.7	87	98.2	89.8	99.3	88.2	99.1	86.4	94.4	90.9	94.7	91.8	91.5	98	91.5	94.1	98	93.7	81.8	87.4	85.4	86	91.1	82.4	90.7	88.1	82.9	90.4	81.7
OC(CCN1CCCCC1)(C2CC\3CC2\C=C3)C4=CC=CC=C4 (centres undefined)	118	128	123	98.1	131	122	134	135	126	123	126												118	122	134	91.4	133	127	123	134	127	126	130
O=[S+]([O-])(CCSSCC[S+](=O)([O-])[O][Na])[O][Na]	105	110	114	124	121	124	129	120	126	123	129	97.4	111	107	111	121	116	133	132	124	119	118	108	133	119	127	134	127	134	126	130	139	133
CCCNCC(O)COc1ccccc1C(=O)CCc1ccccc1 (centres undefined)	101	98.9	107	103	111	106	114	112	118	114	115	112	105	110	116	114	108	113	115	123	128	110	93.4	103	98.1	103	102	113	114	113	112	106	98.4
Cc1cc(SCc2sc(-c3ccc(C(F)(F)F)cc3)nc2C)ccc1OCC(=O)O	97.8	102	102	104	102	99.8	106	100	103	94.9	90.6	98.3	104	96.6	101	106	91.2	101	94.6	94.8	81.1	83.2	96.8	101	102	96.6	94.8	97	101	92.5	97.6	87.2	83.5
O=C(O)CCNc1cc(N2CCc3ccccc3CC2)nc(-c2ccccn2)n1	119	116	115	127	114	111	117	112	114	102	88.5	122	119	113	110	114	123	123	128	104	97.8	69.2	116	130	123	126	123	109	115	121	114	102	79.6
Cc1ccc(NC(=O)c2cccc(N(C)C)c2)cc1NC(=O)c1ccc(O)cc1	120	120	118	116	111	116	119	108	108	108	96.7	114	122	120	127	113	111	119	113	113	102	95.2											
Cn1cc(-c2cnn3c(N)c(Br)c([C@@H]4CCCNC4)nc23)cn1	96.1	102	99.5	97.5	102	99.7	91.3	86.4	16.8	5.55	6.43	91.6	98.8	94	100	93.4	96.5	93.8	77.3	13.1	3.15	3.91	86.9	103	95.9	95.1	89.8	99	90.2	77.3	12.2	4.05	5.37
COCCCOc1ccnc(C[S+]([O-])c2nc3ccccc3[nH]2)c1C (centres undefined)	107	116	109	105	121	113	123	119	125	113	117	114	109	117	106	112	125	135	130	120	131	119	105	105	114	105	134	132	131	113	115	123	121
C[C@H]1C[C@H]2[C@@H]3CCC4=CC(=O)C=C[C@]4(C)[C@H]3C(=O)C[C@]2(C)[C@@]1(O)C(=O)CO	91.4	96.5	93.1	95.6	88	92.7	87.6	94.8	88.3	101	93	91.3	98.1	94	90.7	94.7	99.7	94.9	97.2	100	95.7	85.3	83.7	91.7	80.1	89.7	84	85.6	82.7	83.7	82.2	85.6	70.5
O=C(O)c1ccc(-c2c[nH]c3ncc(-c4ccccc4)cc23)cc1C1CCCC1	108	113	123	116	122	119	120	122	117	80.8	92.6	119	131	113	126	134	133	138	131	129	67	105	114	124	126	130	132	125	138	133	121	73.6	96.3
CO[C@H]1/C=C/O[C@@]2(C)Oc3c(C)c(O)c4c(O)c(c(/C=N/N5CCN(C)CC5)c(O)c4c3C2=O)NC(=O)/C(C)=C\C=C\[C@H](C)[C@H](O)[C@@H](C)[C@@H](O)[C@@H](C)[C@H](OC(C)=O)[C@@H]1C	116	117	124	120	127	114	108	110	99.8	94.9	63.7	128	111	118	118	124	112	123	116	98.3	89.9	75.4	124	120	123	123	122	111	109	115	93.2	82	70.6
CN1CC/C(CC1)=C3\c4ccccc4CC(=O)c2sccc23	117	127	123	120	119	129	134	126	129	120	109																						
COc1nccc(-c2c(-c3ccc(F)cc3)ncn2C2CCC(O)CC2)n1 (centres undefined)	121	117	112	108	118	115	103	105	101	98.3	75.1	113	120	122	116	111	110	117	112	110	106	86.3	126	121	114	117	120	123	118	115	115	115	41.2
CC1(C)Cc2c(sc(NC(=S)NC(=O)c3ccccc3)c2C(=O)O)CO1	99.1	109	107	110	109	115	118	114	101	99.2	101	103	110	110	116	119	118	121	112	110	108	106	103	112	108	110	115	109	126	122	114	105	106
